# Reference: publication PMC9124818 (Pharmacology Research & Perspectives, 2022)
# Like-named read-outs stand apart in the source and are kept apart here.
# How the values were obtained:
# CYP2B6 = molecular target: T1, CYP2B6 (Homo sapiens, UniProt P20813); experiment: Direct CYP450 inhibition in human liver microsomes (efavirenz 8-hydroxylation); conditions: substrate efavirenz
# T1 sequence (P20813 1-491): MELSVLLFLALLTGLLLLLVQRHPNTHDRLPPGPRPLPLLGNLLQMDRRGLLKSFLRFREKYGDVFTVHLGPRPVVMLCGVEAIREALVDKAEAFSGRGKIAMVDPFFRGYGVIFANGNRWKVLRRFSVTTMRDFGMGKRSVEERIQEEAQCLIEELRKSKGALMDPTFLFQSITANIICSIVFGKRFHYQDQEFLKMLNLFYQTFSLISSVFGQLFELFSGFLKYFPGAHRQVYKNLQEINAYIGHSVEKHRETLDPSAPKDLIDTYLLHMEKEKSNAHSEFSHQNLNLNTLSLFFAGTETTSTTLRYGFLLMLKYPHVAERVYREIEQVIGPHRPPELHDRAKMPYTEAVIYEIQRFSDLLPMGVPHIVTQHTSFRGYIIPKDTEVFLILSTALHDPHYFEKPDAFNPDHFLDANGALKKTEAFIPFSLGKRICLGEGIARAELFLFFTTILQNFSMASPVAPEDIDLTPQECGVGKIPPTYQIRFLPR
# Excerpt: (§1) A mixed‐gender pool of 200 individual human liver microsomal samples was used.
# (§2) This LIMS utilizes the Levenberg-Marquardt algorithm to perform nonlinear regression fitting of the data to the following 4-parameter sigmoidal-logistic IC50 equation:
# (§3) As percent of control values are utilized, the Min is set to 0 and the Max is set to 100 (or other values, as appropriate). […] Therefore, when an IC50 value falls outside the concentration range studied, the IC50 values are reported to be greater than the highest concentrations of test article evaluated.
# CYP2D6 [1] = molecular target: T2, CYP2D6 (Homo sapiens, UniProt P10635); experiment: Direct CYP450 inhibition in human liver microsomes (dextromethorphan O-demethylation)
# Method: Microsomes from non‐transplantable human livers were prepared and characterized as outlined previously.[25], [26] A mixed‐gender pool of 200 individual human liver microsomal samples was used. Substrate concentrations and incubation conditions for determination of the kinetic constant (S50 or Km) used to select marker substrate concentrations were previously determined.[24]
# Summary data are expressed as percent of control and mean ± standard deviation (SD) or standard error of the mean (SEM), as appropriate. Individual values from inhibition studies were processed with the laboratory information management system (LIMS) Galileo v3.3 (Thermo Fisher Scientific), which was used to calculate IC50 values from a four‐parameter logistic regression applied to percent inhibition versus concentration values. […] Based on FDA guidance for metabolism‐ and transporter‐mediated DDI studies,[15] basic kinetic models for transporter inhibition, CYP450 inhibition, and CYP450 induction were employed to calculate R, R1, and R3 values, respectively, and were compared to the respective predetermined threshold values listed in the guidance document.[15] […] Plasma protein binding data were used to estimate input parameters for fraction unbound to plasma proteins in the mechanistic static model (Supplemental Table 2). The fraction absorbed was assumed to be 100%, yielding the highest possible portal concentrations. […] Assays were performed in duplicate or triplicate according to previously published reports. Statistical analysis for replicates was not possible with n = 2 sample sizes.
# as §2, §3
# CYP2B6 mRNA = experiment: CYP450 induction in cultured human hepatocytes, mRNA by qRT-PCR; format: cell-based; conditions: for Fold‐change method: Fold change: highest dose tested (40 µM fenfluramine, 50 µM norfenfluramine); for Basic kinetic model: R3: per FDA Guidance (2020); for Fold‐change method: % of control: percent of positive control induction of mRNA; for Basic kinetic model: Emax (fold) / EC50: ± standard error; for Basic kinetic model: Emax (fold): fit of fold‐change −1 values; for EC50: read-out: Basic kinetic model: EC50
# Method: Cells were then harvested to isolate RNA, which was analyzed by quantitative reverse transcription‐polymerase chain reaction (qRT‐PCR) for induction of CYP1A2, CYP2B6, and CYP3A4 mRNA levels. Total RNA was phase extracted with TRIzol followed by purification with an RNeasy Mini Kit (Qiagen Inc., Germantown, MD). Quantitative PCR was performed in triplicate with a 7900HT Fast Real Time PCR System, an Applied Biosystems Universal Master Mix, and TaqMan® Gene Expression Assays. The quantity of target cDNA relative to control cDNA (GAPDH) was determined by the ΔΔCT method (Applied Biosystems User Bulletin #2). Relative quantitation measures the change in mRNA expression in a test sample relative to that in the control sample (i.e., DMSO). This method assumes that the efficiency of target amplification and the efficiency of endogenous control amplification are approximately equal.
# mRNA assessment was conducted using a quantitative reverse transcription-polymerase chain reaction (qRT-PCR) according to the Applied Biosystems protocol. Each PCR was performed in triplicate. A Primer Mix was prepared for each Gene Expression assay. A typical Primer Mix contained TaqMan Fast Advanced Master Mix (1X), Gene Expression Assay (1X, 900 nM forward and reverse primers) and ribonuclease (RNase)-free water. The Reaction Mix was prepared by adding the Primer Mix to cDNA. A percentage of samples (no less than 10%) included NACs. […] The relative quantity of the target cDNA compared with that of the control cDNA (GAPDH) was determined by the ΔΔCt method (Applied Biosystems User Bulletin #2). Relative quantitation measures the change in mRNA expression in a test sample relative to that in a control sample (eg, dimethyl sulfoxide [DMSO]). This method assumes that the efficiency of the target amplification and the efficiency of the endogenous control amplification are approximately equal.
# This software analyzes relative gene expression using the comparative Ct method (ΔΔCt), which relates the PCR signal of the target transcript to the PCR signal of the target in an untreated control. Both the treated sample and the untreated control signals are normalized to the endogenous control (GAPDH), for which expression is not affected by treatment and expression is constant throughout the tissue being tested.
# The level of mRNA expression relative to the positive control was calculated as follows: […]
# CYP2C19 = CYP2C19 (Homo sapiens, UniProt P33261); experiment: Direct CYP450 inhibition in human liver microsomes (S-mephenytoin 4'-hydroxylation); conditions: substrate S-mephenytoin
# Excerpt: as §1, §2, §3
# P‐gp = molecular target: T3, P‐gp (Homo sapiens, UniProt P08183); experiment: Transporter inhibition, bidirectional permeability of digoxin in Caco-2 cells; format: in vitro ADME; conditions: Caco-2; probe digoxin 10 µM; read-out: IC50
# T3 construct: host or cells: Caco-2
# Method: The test compound (FFA or nFFA) or the positive control substrate ([…], respectively) was added to the donor chamber. […] Cells were then washed, lysed with scintillation cocktail, and analyzed for the probe substrate with a MicroBeta scintillation counter (PerkinElmer, Hopkinton, MA). Transcellular transporter assay conditions are described in Supplemental Table 1. Calculation of IC50 values was based on bidirectional permeability of probe substrate with and without the inhibitor in MDCKII cells expressing BCRP and in Caco‐2 cells expressing P‐gp, and transporter‐dependent uptake of probe substrate in HEK293 cells expressing all other transporters (Supplemental Table 1).
# The net flux for human epithelial colorectal adenocarcinoma cells (Caco-2; P-gp) and MDCKII-BCRP inhibition determination was calculated according to the equation: […]
# CYP2D6 [2] = molecular target: T2, CYP2D6; experiment: Time- and metabolism-dependent inhibition, 30-min preincubation with or without NADPH (dextromethorphan O-demethylation); conditions: for IC50: human liver microsomes
# Method: These preincubations allowed assessment of the NADPH‐dependence of any time‐dependent CYP450 inhibition. Following the 30‐min preincubation, the NADPH‐generating system and/or marker substrate was added, and incubations were continued as described previously to measure residual CYP450 enzyme activity.
# [3] = tested on: cultured human hepatocytes; experiment: Cytotoxicity: LDH release and microscopic evaluation; format: cell-based
# Method: Data were processed with KC4 Signature software (version 3.4, Rev 21, BioTek Instruments, Inc.) and graphed with Microsoft Excel 2003 (Microsoft Corp.). Percent LDH release was calculated based on the following equations: […]
# [4] = direct inhibition, human liver microsomes
# [5] = direct inhibition, FFA up to 60 µM, nFFA up to 100 µM
# T2 sequence (P10635 whole entry): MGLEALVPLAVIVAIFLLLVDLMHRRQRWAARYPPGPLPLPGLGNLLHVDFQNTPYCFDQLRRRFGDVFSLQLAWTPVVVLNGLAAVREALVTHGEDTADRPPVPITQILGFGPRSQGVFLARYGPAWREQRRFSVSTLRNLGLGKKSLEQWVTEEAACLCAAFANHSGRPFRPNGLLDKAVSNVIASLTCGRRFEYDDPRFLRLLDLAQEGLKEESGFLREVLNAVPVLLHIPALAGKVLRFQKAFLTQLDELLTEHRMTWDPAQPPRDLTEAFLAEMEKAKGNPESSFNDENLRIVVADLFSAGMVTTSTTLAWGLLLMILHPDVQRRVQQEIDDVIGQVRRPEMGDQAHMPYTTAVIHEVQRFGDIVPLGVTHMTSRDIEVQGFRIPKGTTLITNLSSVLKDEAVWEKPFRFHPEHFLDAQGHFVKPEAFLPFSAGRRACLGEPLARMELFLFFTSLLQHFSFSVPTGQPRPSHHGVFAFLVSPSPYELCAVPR
# CYP2C19, sequence (P33261 whole entry): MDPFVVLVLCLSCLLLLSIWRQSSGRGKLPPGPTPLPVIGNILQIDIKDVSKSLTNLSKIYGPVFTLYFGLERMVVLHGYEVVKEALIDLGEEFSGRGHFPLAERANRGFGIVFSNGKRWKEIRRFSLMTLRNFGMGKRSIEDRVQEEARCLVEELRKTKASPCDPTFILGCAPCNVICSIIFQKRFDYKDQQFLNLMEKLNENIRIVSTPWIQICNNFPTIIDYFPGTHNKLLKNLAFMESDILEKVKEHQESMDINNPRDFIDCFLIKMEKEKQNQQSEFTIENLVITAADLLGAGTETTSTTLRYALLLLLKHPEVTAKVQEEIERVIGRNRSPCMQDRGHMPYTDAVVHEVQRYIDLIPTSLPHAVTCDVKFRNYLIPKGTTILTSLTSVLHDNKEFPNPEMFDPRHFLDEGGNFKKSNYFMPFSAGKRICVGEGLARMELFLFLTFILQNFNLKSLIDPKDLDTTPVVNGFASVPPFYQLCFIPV
# T3 sequence (P08183 whole entry): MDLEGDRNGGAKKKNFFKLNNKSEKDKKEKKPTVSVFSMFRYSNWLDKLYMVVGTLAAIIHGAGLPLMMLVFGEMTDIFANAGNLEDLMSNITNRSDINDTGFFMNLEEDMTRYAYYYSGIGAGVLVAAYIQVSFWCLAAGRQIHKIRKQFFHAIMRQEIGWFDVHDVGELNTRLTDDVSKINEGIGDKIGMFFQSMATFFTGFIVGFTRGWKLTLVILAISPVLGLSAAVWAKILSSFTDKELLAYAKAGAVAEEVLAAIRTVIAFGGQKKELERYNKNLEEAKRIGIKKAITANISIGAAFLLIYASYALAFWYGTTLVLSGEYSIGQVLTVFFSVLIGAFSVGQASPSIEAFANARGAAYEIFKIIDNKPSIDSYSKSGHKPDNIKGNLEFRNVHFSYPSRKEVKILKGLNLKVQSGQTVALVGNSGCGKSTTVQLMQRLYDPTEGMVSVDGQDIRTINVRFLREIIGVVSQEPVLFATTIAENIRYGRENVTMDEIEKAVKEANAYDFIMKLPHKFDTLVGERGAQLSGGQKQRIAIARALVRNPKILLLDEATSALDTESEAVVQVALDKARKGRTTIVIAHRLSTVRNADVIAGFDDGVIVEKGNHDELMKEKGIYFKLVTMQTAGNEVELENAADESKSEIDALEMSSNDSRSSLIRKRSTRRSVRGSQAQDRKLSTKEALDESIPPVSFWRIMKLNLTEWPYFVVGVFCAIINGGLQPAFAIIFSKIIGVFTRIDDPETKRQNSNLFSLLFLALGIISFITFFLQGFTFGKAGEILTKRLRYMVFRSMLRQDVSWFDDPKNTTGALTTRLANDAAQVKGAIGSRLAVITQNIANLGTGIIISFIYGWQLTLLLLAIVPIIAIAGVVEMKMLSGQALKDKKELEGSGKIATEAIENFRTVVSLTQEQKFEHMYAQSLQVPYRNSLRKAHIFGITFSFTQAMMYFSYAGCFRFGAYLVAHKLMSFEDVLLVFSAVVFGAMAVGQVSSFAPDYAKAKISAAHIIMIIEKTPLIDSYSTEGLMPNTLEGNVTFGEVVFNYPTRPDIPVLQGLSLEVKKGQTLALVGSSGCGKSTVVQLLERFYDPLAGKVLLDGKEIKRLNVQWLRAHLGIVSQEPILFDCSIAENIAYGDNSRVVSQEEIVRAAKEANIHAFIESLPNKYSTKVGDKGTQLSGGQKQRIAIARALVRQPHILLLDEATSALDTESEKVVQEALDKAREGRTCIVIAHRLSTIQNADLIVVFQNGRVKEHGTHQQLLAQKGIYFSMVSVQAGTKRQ
compound,measurement,setting,value
"CC(N)Cc1cccc(C(F)(F)F)c1.Cl (stereo not shown) [nFFA, [1‐(3‐trifluoromethyl)phenyl]propan‐2‐amine hydrochloride]",IC50,CYP2B6; [4],> 100 µM
same,Inhibition (%),CYP2B6; [5],23%
same,Basic model: Potential for clinical inhibition,CYP2B6,No (Potential to inhibit if R1 ≥ 1.02)
same,Static mechanistic model: Potential for clinical inhibition,CYP2B6,No (Potential to inhibit if AUCR ≥ 1.25)
same,Basic model: R1,"CYP2B6; R1 = 1 + (Imax,u/Ki,u)",1.00
same,IC50,"CYP2D6 [1]; direct inhibition (no preincubation), human liver microsomes, substrate dextromethorphan",16 ± 1 µM
same,Inhibition (%),"CYP2D6 [1]; direct inhibition, substrate dextromethorphan, FFA up to 60 µM, nFFA up to 100 µM",82%
same,Ah (guidance term),"CYP2D6 [1]; mechanistic static model, Supplemental Table 2",0.988
same,Ki,"CYP2D6 [1]; read-out: Ki, u, IC50 divided by 2, assumes [S] = Km, adjusted for estimated unbound fraction in microsomes",7.86 µM
same,Basic model: Potential for clinical inhibition,CYP2D6 [1]; substrate dextromethorphan,No (Potential to inhibit if R1 ≥ 1.02)
same,Static mechanistic model: Potential for clinical inhibition,CYP2D6 [1]; substrate dextromethorphan,No (Potential to inhibit if AUCR ≥ 1.25)
same,Basic model: R1,"CYP2D6 [1]; substrate dextromethorphan, R1 = 1 + (Imax,u/Ki,u)",1.01
same,CYP2B6 induction (abstract),CYP2B6 mRNA; cultured human hepatocytes,up to 2.0 fold
same,Basic kinetic model: Potential to induce,CYP2B6 mRNA; hepatocytes HC7‐8,No
same,Fold‐change method: Potential to induce,CYP2B6 mRNA; hepatocytes HC7‐8,Yes
same,Static mechanistic model: Potential to induce,CYP2B6 mRNA; hepatocytes HC7‐8,No (AUCR <0.8 to denote induction)
same,Fold‐change method: Fold change,CYP2B6 mRNA; hepatocytes HC7‐8,2.15 fold
same,Basic kinetic model: R3,CYP2B6 mRNA; hepatocytes HC7‐8,0.92
same,Fold‐change method: % of control,CYP2B6 mRNA; hepatocytes HC7‐8,10.60%
same,Basic kinetic model: Emax (fold),CYP2B6 mRNA; hepatocytes HC7‐8,1.14 ± 0.083 fold
same,EC50,CYP2B6 mRNA; hepatocytes HC7‐8,10.8 ± 2.3 µM
same,Basic kinetic model: Potential to induce,CYP2B6 mRNA; hepatocytes HC10‐8,No
same,Fold‐change method: Potential to induce,CYP2B6 mRNA; hepatocytes HC10‐8,Yes
same,Static mechanistic model: Potential to induce,CYP2B6 mRNA; hepatocytes HC10‐8,No (AUCR <0.8 to denote induction)
same,Fold‐change method: Fold change,CYP2B6 mRNA; hepatocytes HC10‐8,3.01 fold
same,Basic kinetic model: R3,CYP2B6 mRNA; hepatocytes HC10‐8,0.93
same,Fold‐change method: % of control,CYP2B6 mRNA; hepatocytes HC10‐8,21.20%
same,Basic kinetic model: Emax (fold),CYP2B6 mRNA; hepatocytes HC10‐8,2.08 ± 0.197 fold
same,EC50,CYP2B6 mRNA; hepatocytes HC10‐8,26.4 ± 2.9 µM
same,Basic kinetic model: Potential to induce,CYP2B6 mRNA; hepatocytes HC10‐10,No
same,Fold‐change method: Potential to induce,CYP2B6 mRNA; hepatocytes HC10‐10,Yes
same,Static mechanistic model: Potential to induce,CYP2B6 mRNA; hepatocytes HC10‐10,No (AUCR <0.8 to denote induction)
same,Fold‐change method: Fold change,CYP2B6 mRNA; hepatocytes HC10‐10,2.54 fold
same,Basic kinetic model: R3,CYP2B6 mRNA; hepatocytes HC10‐10,0.88
same,Fold‐change method: % of control,CYP2B6 mRNA; hepatocytes HC10‐10,21.60%
same,Basic kinetic model: Emax (fold),CYP2B6 mRNA; hepatocytes HC10‐10,1.36 ± 0.11 fold
same,EC50,CYP2B6 mRNA; hepatocytes HC10‐10,8.81 ± 1.6 µM
same,IC50,CYP2C19; [4],> 100 µM
same,Inhibition (%),CYP2C19; [5],2.9%
same,Basic model: Potential for clinical inhibition,CYP2C19,No (Potential to inhibit if R1 ≥ 1.02)
same,Static mechanistic model: Potential for clinical inhibition,CYP2C19,No (Potential to inhibit if AUCR ≥ 1.25)
same,Basic model: R1,"CYP2C19; R1 = 1 + (Imax,u/Ki,u)",1.00
same,IC50,P‐gp,> 50 µM
same,% inhibition (- NADPH),CYP2D6 [2]; 30-min preincubation in the absence of NADPH,82%
same,% inhibition (+ NADPH),CYP2D6 [2]; 30-min preincubation in the presence of NADPH,80%
same,IC50,"CYP2D6 [2]; read-out: IC50 (+ NADPH), 30-min preincubation in the presence of NADPH",17 ± 1 µM
same,IC50,"CYP2D6 [2]; read-out: IC50 (- NADPH), 30-min preincubation in the absence of NADPH",15 ± 1 µM
same,hepatocyte morphology,[3]; up to 40 μM FFA or 50 μM nFFA for 3 consecutive days,No morphological changes
same,LDH release,"[3]; up to 40 μM FFA or 50 μM nFFA, all three hepatocyte cultures",≤ 13.8 % positive control
